Test system: PANK2−/− IMR32 cells
Assay: Coenzyme A assay in PANK2 silenced cells (LC-MS quantification of free CoA)
Type: cell-based, human
Settings: Homo sapiens, IMR-32; compound concentration 1 uM; fold increase in CoA levels relative to controls; treated twice, 24 h + 24 h
Protocol: A human neuroblastoma IMR32 cell line (ATCC) with stably PANK2 silencing was obtained by lentiviral-delivered small hairpin RNA and cultured in MEM (Invitrogen) supplemented with 10% fetal bovine serum, 2 mM glutamine, 1% penicillin-streptomycin, 1 mM sodium pyruvate, 1 mM non-essential amino acids, and 1.5 g/l sodium bicarbonate.
A non-silencing shRNA construct (scrambled shRNA) and an empty vector expressing GFP alone were used as negative controls. The GFP tag subcloned into the lentiviral vectors was used to monitor the transfection efficiency.
Three days after transduction medium was removed and replaced with fresh medium containing […] puromycin. […] The level of PANK2 expression in selected clones was assessed by Western Blot analysis.
To quantify CoA, PANK2−/− IMR32 cells were plated on 12-well culture plates (Corning) at a density of 0.2×10^6 cells per well. […] Controls with medium containing 0.1% DMSO without test compounds were also included in each plate. […] Before LC-MS analysis of CoA levels, cells were harvested, counted, and collected in a 15 ml falcon tube and centrifuged at 200×g for 5 min at 4° C. Supernatant was removed and cell pellet was washed in 10 ml of ice-cold PBS. To further confirm that the numbers of cells in each sample were equivalent, an equal fraction of pellet was collected from each sample and subjected to protein determination analysis. After centrifugation and supernatant removal, the cell pellet was rapidly frozen in Liquid Nitrogen and stored at −80° C. until analysis.
Intracellular CoA levels were calculated considering an intracellular volume of 1 million cells=2 μl.
The 1*10^6 cellular pellet was extracted with 120 μl of aqueous 20% TFA.
100 μL samples of supernatant were dried under N2 at 20° C. in the dark.
Samples were re-dissolved in 100 μl of 10 mM NH4^+ AcO^− buffer pH 5.1+IS (Dextrorphan 50 ng/ml), stirred for 2 min, sonicated in ultrasonic bath for 1 min, then stirred again for 1 min, and injected into LC-MS.
LC-MS/MS was performed using an Agilent HPLC (1100 Series, USA). The LC system was interfaced with an API-4000 Q-Trap triple quadrupole mass spectrometer (AB Sciex, Toronto, Canada) equipped with a TurboIonSpray ionization source operating in positive ion mode. Analyst™ software version 1.6 (AB Sciex, Toronto, Canada) was used for data acquisition and processing. CoA was separated using a Luna C18 column (2.0×50 mm; 5 μm particle size), column at 25° C. and flow rate of 0.2 ml/min. Injection volume was 15 μl. The mobile phases consisted of water containing 10 mM ammonium acetate pH 7 (mobile phase A) and MeCN-2-propanol 9:1 (mobile phase B).
Results are expressed as fold increase in CoA levels relative to controls (using LC-MS quantification of free CoA).

| SMILES | fold induction at 1 µM |
| --- | --- |
| CC(=O)SCCNC(=O)CCNC(=O)[C@@H]1OP(=O)(OCOC(=O)c2cccc(Cl)c2)OCC1(C)C (stereo partly drawn) [R1034, (((4R)-4-((3-((2-(acetylthio)ethyl)amino)-3-oxopropyl)carbamoyl)-5,5-dimethyl-2-oxido-1,3,2-dioxaphosphinan-2-yl)oxy)methyl 3-chlorobenzoate] | 29.6 |
| CC(=O)SCCNC(=O)CCNC(=O)[C@@H]1O[P@@](=O)(OCOC(=O)OC(C)C)OCC1(C)C [R1017, S-(2-(3-((2S,4R)-2-(((isopropoxycarbonyl)oxy)methoxy)-5,5-dimethyl-2-oxido-1,3,2-dioxaphosphinane-4-carboxamido)propanamido)ethyl) ethanethioate] | 18.4 |
| CC(=O)SCCNC(=O)CCNC(=O)[C@@H]1OP(=O)(OCOC(=O)c2ccc(C(F)(F)F)cc2)OCC1(C)C (stereo partly drawn) [R1037, (((4R)-4-((3-((2-(acetylthio)ethyl)amino)-3-oxopropyl)carbamoyl)-5,5-dimethyl-2-oxido-1,3,2-dioxaphosphinan-2-yl)oxy)methyl 4-(trifluoromethyl)benzoate] | 30.1 |
| COc1ccc(C(=O)OCOP2(=O)OCC(C)(C)[C@H](C(=O)NCCC(=O)NCCSC(C)=O)O2)cc1 (stereo partly drawn) [R1035, (((4R)-4-((3-((2-(acetylthio)ethyl)amino)-3-oxopropyl)carbamoyl)-5,5-dimethyl-2-oxido-1,3,2-dioxaphosphinan-2-yl)oxy)methyl 4-methoxybenzoate] | 18 |
| CC(=O)SCCNC(=O)CCNC(=O)[C@@H]1OP(=O)(OCOC(=O)c2cccc(C)c2)OCC1(C)C (stereo partly drawn) [R1039, (((4R)-4-((3-((2-(acetylthio)ethyl)amino)-3-oxopropyl)carbamoyl)-5,5-dimethyl-2-oxido-1,3,2-dioxaphosphinan-2-yl)oxy)methyl 3-methylbenzoate] | 27.4 |
| CC(=O)SCCNC(=O)CCNC(=O)[C@@H]1OP(=O)(OCOC(=O)c2ccc(C)cc2)OCC1(C)C (stereo partly drawn) [R1036, (((4R)-4-((3-((2-(acetylthio)ethyl)amino)-3-oxopropyl)carbamoyl)-5,5-dimethyl-2-oxido-1,3,2-dioxaphosphinan-2-yl)oxy)methyl 4-methylbenzoate] | 52.2 |
| COc1cccc(C(=O)OCOP2(=O)OCC(C)(C)[C@H](C(=O)NCCC(=O)NCCSC(C)=O)O2)c1 (stereo partly drawn) [R1038, (((4R)-4-((3-((2-(acetylthio)ethyl)amino)-3-oxopropyl)carbamoyl)-5,5-dimethyl-2-oxido-1,3,2-dioxaphosphinan-2-yl)oxy)methyl 3-methoxybenzoate] | 26.2 |
| CC(=O)SCCNC(=O)CCNC(=O)[C@@H]1OP(=O)(OCOC(=O)c2ccc(Cl)cc2)OCC1(C)C (stereo partly drawn) [R1033, (((4R)-4-((3-((2-(acetylthio)ethyl)amino)-3-oxopropyl)carbamoyl)-5,5-dimethyl-2-oxido-1,3,2-dioxaphosphinan-2-yl)oxy)methyl 4-chlorobenzoate] | 25.8 |
| CC(=O)SCCNC(=O)CCNC(=O)[C@@H]1OP(=O)(OCOC(=O)c2ccccc2)OCC1(C)C (stereo partly drawn) [R1009, (((4R)-4-((3-((2-(acetylthio)ethyl)amino)-3-oxopropyl)carbamoyl)-5,5-dimethyl-2-oxido-1,3,2-dioxaphosphinan-2-yl)oxy)methyl benzoate] | 69.5 |
| CC(=O)SCCNC(=O)CCNC(=O)[C@@H]1O[P@](=O)(OCOC(=O)c2cc(C(C)(C)C)nn2C)OCC1(C)C [R1044, (((2R,4R)-4-((3-((2-(acetylthio)ethyl)amino)-3-oxopropyl)carbamoyl)-5,5-dimethyl-2-oxido-1,3,2-dioxaphosphinan-2-yl)oxy)methyl 3-(tert-butyl)-1-methyl-1H-pyrazole-5-carboxylate] | 20.3 |
| CC(=O)SCCNC(=O)CCNC(=O)[C@@H]1O[P@@](=O)(OCOC(=O)c2cc(C(C)(C)C)nn2C)OCC1(C)C [R1045, (((2S,4R)-4-((3-((2-(acetylthio)ethyl)amino)-3-oxopropyl)carbamoyl)-5,5-dimethyl-2-oxido-1,3,2-dioxaphosphinan-2-yl)oxy)methyl 3-(tert-butyl)-1-methyl-1H-pyrazole-5-carboxylate] | 2.3 |
| CC(=O)SCCNC(=O)CCNC(=O)[C@@H]1OP(=O)(OCOC(=O)c2cc(C(C)(C)C)nn2C)OCC1(C)C (stereo partly drawn) [R1010, (((4R)-4-((3-((2-(acetylthio)ethyl)amino)-3-oxopropyl)carbamoyl)-5,5-dimethyl-2-oxido-1,3,2-dioxaphosphinan-2-yl)oxy)methyl 3-(tert-butyl)-1-methyl-1H-pyrazole-5-carboxylate] | 200 |

Same assay, conditions: Homo sapiens, IMR-32; compound concentration 10 uM; fold increase in CoA levels relative to controls; treated twice, 24 h + 24 h

| SMILES | fold induction at 10 µM |
| --- | --- |
| CC(=O)SCCNC(=O)CCNC(=O)[C@@H]1O[P@@](=O)(OCOC(=O)NCCOC(=O)C(C)(C)C)OCC1(C)C [R1030, 2-((((((2S,4R)-4-((3-((2-(acetylthio)ethyl)amino)-3-oxopropyl)carbamoyl)-5,5-dimethyl-2-oxido-1,3,2-dioxaphosphinan-2-yl)oxy)methoxy)carbonyl)amino)ethyl pivalate] | 7.1 |

Same assay, conditions: Homo sapiens, IMR-32; compound concentration 50 uM; fold increase in CoA levels relative to controls; treated twice, 24 h + 24 h

| SMILES | fold induction at 50 µM |
| --- | --- |
| COC(=O)[C@H](C)N[P@]1(=O)OCC(C)(C)[C@H](C(=O)NCCC(=O)NCCSC(C)=O)O1 [R1004, methyl ((2S,4R)-4-((3-((2-(acetylthio)ethyl)amino)-3-oxopropyl)carbamoyl)-5,5-dimethyl-2-oxido-1,3,2-dioxaphosphinan-2-yl)-L-alaninate] | 2.1 |
| CC(=O)SCCNC(=O)CCNC(=O)[C@@H]1OP(=O)(OCOC(=O)c2ccc(C(F)(F)F)cn2)OCC1(C)C (stereo partly drawn) [R1040, (((4R)-4-((3-((2-(acetylthio)ethyl)amino)-3-oxopropyl)carbamoyl)-5,5-dimethyl-2-oxido-1,3,2-dioxaphosphinan-2-yl)oxy)methyl 5-(trifluoromethyl)picolinate] | 4.5 |
| COC(=O)[C@@H](NP1(=O)OCC(C)(C)[C@H](C(=O)NCCC(=O)NCCSC(C)=O)O1)C(C)C (stereo partly drawn) [R1026, methyl ((4R)-4-((3-((2-(acetylthio)ethyl)amino)-3-oxopropyl)carbamoyl)-5,5-dimethyl-2-oxido-1,3,2-dioxaphosphinan-2-yl)-L-valinate] | 2.5 |
| CC(=O)OCC(C)(C)NC(=O)OCOP1(=O)OCC(C)(C)[C@H](C(=O)NCCC(=O)NCCSC(C)=O)O1 (stereo partly drawn) [R1027, 2-((((((4R)-4-((3-((2-(acetylthio)ethyl)amino)-3-oxopropyl)carbamoyl)-5,5-dimethyl-2-oxido-1,3,2-dioxaphosphinan-2-yl)oxy)methoxy)carbonyl)amino)-2-methylpropyl acetate] | 2.8 |
| CC(=O)SCCNC(=O)CCNC(=O)[C@@H]1OP(=O)(OCOC(=O)N[C@@H](CSC(=O)C(C)(C)C)C(=O)OCc2ccccc2)OCC1(C)C (stereo partly drawn) [R1029, benzyl N-(((((4R)-4-((3-((2-(acetylthio)ethyl)amino)-3-oxopropyl)carbamoyl)-5,5-dimethyl-2-oxido-1,3,2-dioxaphosphinan-2-yl)oxy)methoxy)carbonyl)-S-pivaloyl-L-cysteinate] | 120 |
| COC(=O)[C@@H](N[P@@]1(=O)OCC(C)(C)[C@H](C(=O)NCCC(=O)NCCSC(C)=O)O1)C(C)C [R1014, methyl ((2R,4R)-4-((3-((2-(acetylthio)ethyl)amino)-3-oxopropyl)carbamoyl)-5,5-dimethyl-2-oxido-1,3,2-dioxaphosphinan-2-yl)-L-valinate] | 1.7 |
| CC(=O)SCCNC(=O)CCNC(=O)[C@@H]1OP(=O)(OCOC(=O)NCCOC(=O)[C@@H](N)C(C)C)OCC1(C)C (stereo partly drawn) [R1032, 2-((((((4R)-4-((3-((2-(acetylthio)ethyl)amino)-3-oxopropyl)carbamoyl)-5,5-dimethyl-2-oxido-1,3,2-dioxaphosphinan-2-yl)oxy)methoxy)carbonyl)amino)ethyl L-valinate] | 1 |

Same assay, conditions: compound concentration 10 uM; fold increase in CoA levels relative to controls; treated twice, 24 h + 24 h

| SMILES | PANK2−/− CoA Fold increase [fold] |
| --- | --- |
| CC(=O)SCCNC(=O)CCNC(=O)[C@@H]1OP(=O)(Oc2ccccc2)OCC1(C)C (stereo partly drawn) [R1043, S-(2-(3-((4R)-5,5-dimethyl-2-oxido-2-phenoxy-1,3,2-dioxaphosphinane-4-carboxamido)propanamido)ethyl) ethanethioate] | 1.1 |

— US20190337971A1, “PANTETHEINE DERIVATIVES FOR THE TREATMENT OF NEUROLOGIC DISORDERS” (Retrophin, Inc., priority 2016, published 2019)
